Measured values as given in PubChem BioAssay AID1963982 (Molecular Pharmacology Branch, DTP, NCI, 2024).
One block for each molecule: values may come before it.

Tested on: 313798-341-R-J2-PDC spheroids, viability
Experiment: Anticancer human tumor 313798-341-R-J2-PDC patient-derived cervical squamous cell carcinoma cell line growth inhibition [PI3K]
Settings: spheroids with HUVEC and MSC; for IC50: curve of first compound; for viability, T/C: stronger effect = lower value
Outline: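 Targeted small molecules plus PI3K inhibitors, half-log dose series from Cmax (default top 10 microM), were applied to heterotypic spheroids of cancer cells with HUVEC and MSCs. Viability indicated growth inhibition.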

[1] = second compound 0.0316 µM, first compound 0.0316 µM
[2] = second compound 0.0316 µM, first compound 0.1 µM
[3] = second compound 0.0316 µM, first compound 0.316 µM
[4] = second compound 0.0316 µM, first compound 1 µM
[5] = second compound 0.0316 µM, first compound 3.16 µM
[6] = second compound 0.0316 µM, first compound 10 µM
[7] = second compound 0.1 µM, first compound 0.0316 µM
[8] = second compound 0.1 µM, first compound 0.1 µM
[9] = second compound 0.1 µM, first compound 0.316 µM
[10] = second compound 0.1 µM, first compound 1 µM
[11] = second compound 0.1 µM, first compound 3.16 µM
[12] = second compound 0.1 µM, first compound 10 µM
[13] = second compound 0.316 µM, first compound 0.0316 µM
[14] = second compound 0.316 µM, first compound 0.1 µM
[15] = second compound 0.316 µM, first compound 0.316 µM
[16] = second compound 0.316 µM, first compound 1 µM
[17] = second compound 0.316 µM, first compound 3.16 µM
[18] = second compound 0.316 µM, first compound 10 µM
[19] = second compound 1 µM, first compound 0.0316 µM
[20] = second compound 1 µM, first compound 0.1 µM
[21] = second compound 1 µM, first compound 0.316 µM
[22] = second compound 1 µM, first compound 1 µM
[23] = second compound 1 µM, first compound 3.16 µM
[24] = second compound 1 µM, first compound 10 µM
[25] = second compound 3.16 µM, first compound 0.0316 µM
[26] = second compound 3.16 µM, first compound 0.1 µM
[27] = second compound 3.16 µM, first compound 0.316 µM
[28] = second compound 3.16 µM, first compound 1 µM
[29] = second compound 3.16 µM, first compound 3.16 µM
[30] = second compound 3.16 µM, first compound 10 µM
[31] = second compound 10 µM, first compound 0.0316 µM
[32] = second compound 10 µM, first compound 0.1 µM
[33] = second compound 10 µM, first compound 0.316 µM
[34] = second compound 10 µM, first compound 1 µM
[35] = second compound 10 µM, first compound 3.16 µM
[36] = second compound 10 µM, first compound 10 µM
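Also: spheroids exposed to compounds for seven days.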
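For viability, T/C in this document: 100% = DMSO vehicle control viability.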

IC50 (second compound 0.0316 µM): > 10 µM
IC50 (second compound 0.1 µM): > 10 µM
IC50 (second compound 0.316 µM): > 10 µM
IC50 (second compound 1 µM): > 10 µM
IC50 (second compound 3.16 µM): 9.34 µM
IC50 (second compound 10 µM): < 0.0316 µM
SMILES: C#Cc1c(F)ccc2cc(O)cc(-c3ncc4c(N5CC6CCC(C5)N6)nc(OCC56CCCN5CC(F)C6)nc4c3F)c12 (centres undefined) + Cc1nc(NC(=O)N2CCCC2C(N)=O)sc1-c1ccnc(C(C)(C)C(F)(F)F)c1
viability, T/C [1]: 92.7%
viability, T/C [2]: 91.5%
viability, T/C [3]: 90.5%
viability, T/C [4]: 99.2%
viability, T/C [5]: 103%
viability, T/C [6]: 102%
viability, T/C [7]: 105%
viability, T/C [8]: 106%
viability, T/C [9]: 112%
viability, T/C [10]: 97%
viability, T/C [11]: 105%
viability, T/C [12]: 96.5%
viability, T/C [13]: 99.9%
viability, T/C [14]: 98.4%
viability, T/C [15]: 121%
viability, T/C [16]: 108%
viability, T/C [17]: 99.1%
viability, T/C [18]: 100%
viability, T/C [19]: 97.6%
viability, T/C [20]: 80.3%
viability, T/C [21]: 89.3%
viability, T/C [22]: 89.7%
viability, T/C [23]: 90.9%
viability, T/C [24]: 79%
viability, T/C [25]: 59.9%
viability, T/C [26]: 62.5%
viability, T/C [27]: 59.1%
viability, T/C [28]: 60.1%
viability, T/C [29]: 54.6%
viability, T/C [30]: 44.8%
viability, T/C [31]: 41.7%
viability, T/C [32]: 39.8%
viability, T/C [33]: 33.2%
viability, T/C [34]: 33.9%
viability, T/C [35]: 31.3%
viability, T/C [36]: 27.2%

IC50 (second compound 0.0316 µM): > 10 µM
IC50 (second compound 0.1 µM): > 10 µM
IC50 (second compound 0.316 µM): > 10 µM
IC50 (second compound 1 µM): > 10 µM
IC50 (second compound 3.16 µM): > 10 µM
IC50 (second compound 10 µM): < 0.0316 µM
SMILES: C=CC(=O)N1CCN(c2nc(=O)n(-c3c(C)ccnc3C(C)C)c3nc(-c4c(O)cccc4F)c(F)cc23)C(C)C1 (centres undefined) + Cc1nc(NC(=O)N2CCCC2C(N)=O)sc1-c1ccnc(C(C)(C)C(F)(F)F)c1
viability, T/C [1]: 99.9%
viability, T/C [2]: 101%
viability, T/C [3]: 96.5%
viability, T/C [4]: 106%
viability, T/C [5]: 99.2%
viability, T/C [6]: 96%
viability, T/C [7]: 94.4%
viability, T/C [8]: 94%
viability, T/C [9]: 114%
viability, T/C [10]: 86.3%
viability, T/C [11]: 94.3%
viability, T/C [12]: 92.8%
viability, T/C [13]: 91.2%
viability, T/C [14]: 90.2%
viability, T/C [15]: 93.1%
viability, T/C [16]: 98.8%
viability, T/C [17]: 101%
viability, T/C [18]: 101%
viability, T/C [19]: 89%
viability, T/C [20]: 89.4%
viability, T/C [21]: 88.2%
viability, T/C [22]: 97.3%
viability, T/C [23]: 96.7%
viability, T/C [24]: 89.5%
viability, T/C [25]: 67.5%
viability, T/C [26]: 56.5%
viability, T/C [27]: 51.9%
viability, T/C [28]: 67.5%
viability, T/C [29]: 67.9%
viability, T/C [30]: 58.5%
viability, T/C [31]: 35.2%
viability, T/C [32]: 32.4%
viability, T/C [33]: 35.7%
viability, T/C [34]: 32.9%
viability, T/C [35]: 37.9%
viability, T/C [36]: 34.2%
